The test system of assay [1] is TNFα release by human PBMCs. In words: Cytokine release by LPS-stimulated human PBMCs (TNFα ELISA). The assay is classed as cell-based. To be noted: PBMC, LPS 1 μg/mL, 24 hr. In a few lines: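 Human PBMCs at 2.5E6 cells/mL preincubated 1 h with compound (0.2% DMSO final), then stimulated with 1 μg/mL LPS (E. coli 026:B6) for 24 h. Supernatant TNFα measured by chemiluminescent sandwich ELISA; percent inhibition normalised to LPS/vehicle and unstimulated controls, EC50 fitted from 8-point 1/3 dilutions.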

Another assay has as its target T1, MAPKAPK5 (Homo sapiens, UniProt Q8IW41).
T1 construct: 1 mU MAPKAP-K5
T1 sequence (Q8IW41 1-473): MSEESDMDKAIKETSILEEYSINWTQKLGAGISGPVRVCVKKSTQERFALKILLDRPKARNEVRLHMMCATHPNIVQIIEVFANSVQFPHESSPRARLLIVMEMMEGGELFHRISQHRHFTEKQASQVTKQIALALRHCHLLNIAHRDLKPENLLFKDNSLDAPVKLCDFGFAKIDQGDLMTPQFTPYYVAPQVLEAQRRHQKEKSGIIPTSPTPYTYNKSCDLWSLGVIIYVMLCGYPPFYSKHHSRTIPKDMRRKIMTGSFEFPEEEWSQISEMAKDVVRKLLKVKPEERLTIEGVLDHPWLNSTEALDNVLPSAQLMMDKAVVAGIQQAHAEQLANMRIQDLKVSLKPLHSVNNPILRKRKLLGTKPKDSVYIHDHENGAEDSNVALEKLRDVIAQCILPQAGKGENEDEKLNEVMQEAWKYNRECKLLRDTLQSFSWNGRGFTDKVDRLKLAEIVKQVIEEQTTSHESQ
In words: MAPKAP-K5 assay (FlashPlate, 33P-ATP). To be noted: 0.6 μM ATP, 30 minutes at room temperature. The assay is classed as biochemical. As for the experimental part:
3 μM MAPKAP-K5 peptide substrate

In the case of `C[C@@H]1CN(c2ccc(Nc3ncc(-c4ccc(C(N)=O)cc4)n4ccnc34)cc2)C[C@H](C)N1C` [Compound 155], the EC50 in assay [1] was > 1000 nM. Further, on MAPKAPK5, the half-maximal inhibitory concentration (IC50) is > 1000 nM.

Regarding `CN1CCN(c2ccc(Nc3ncc(-c4cc(C(N)=O)cs4)n4ccnc34)cc2)CC1` [Compound 145, 5-{8-[4-(4-Methyl-piperazin-1-yl)-phenylamino]-imidazo[1,2-a]pyrazin-5-yl}-thiophene-3-carboxylic acid amide], the EC50 in assay [1] was > 1000 nM. The concentration for half-maximal inhibition (IC50) at MAPKAPK5 was > 1000 nM.

Take `CN1CCN(c2ccc(Nc3ncc(-c4ccnc(F)c4)n4ccnc34)cc2)CC1` [Compound 125, [5-(2-Fluoro-pyridin-4-yl)-imidazo[1,2-a]pyrazin-8-yl]-[4-(4-methyl-piperazin-1-yl)-phenyl]-amine]: the EC50 in assay [1] is > 1000 nM. Further, on MAPKAPK5, the IC50 is > 1000 nM.

On to `O=C1NCc2cc(-c3cnc(Nc4cccnc4)c4nccn34)ccc21` [Compound 197], for which the EC50 in assay [1] is > 1000 nM. This compound also showed an IC50 against MAPKAPK5 of 101 to 500 nM.

Regarding `CCN(CC)CCNC(=O)c1ccc(Nc2ncc(-c3cn[nH]c3)n3ccnc23)c(F)c1` [Compound 83], the EC50 in assay [1] is > 1000 nM. This compound also gave a concentration for half-maximal inhibition (IC50) at MAPKAPK5 of 101 to 500 nM.

In assay [1], `CN1CCN(c2ccc(Nc3ncc(-c4cscn4)n4ccnc34)cc2)CC1` [Compound 138] showed an EC50 of 101 to 500 nM. Further, the IC50 against MAPKAPK5 is > 1000 nM.

As to `O=C(NCc1ccc(O)cc1)c1ccc(Nc2ncc(-c3cn[nH]c3)n3ccnc23)cc1` [Compound 90, N-(4-Hydroxybenzyl)-4-[5-(1H-pyrazol-4-yl)imidazo[1,2-a]pyrazin-8-ylamino]benzamide], in assay [1], the half-maximal effective concentration (EC50) was > 1000 nM. This compound came in with an IC50 on MAPKAPK5 of 501 to 1000 nM.

Consider `CN1CCN(c2ccc(Nc3ncc(-c4cn[nH]c4)n4ccnc34)cc2)CC1` [Compound 14], for which the EC50 in assay [1] was > 1000 nM. Also, the IC50 against MAPKAPK5 was > 1000 nM.

Compound `NC(=O)c1ccc(-c2cnc(Nc3ccc(N4CCCCC4)cc3)c3nccn23)cc1` [Compound 144] showed an EC50 in assay [1] of 1 to 100 nM. Besides, the IC50 against MAPKAPK5 was > 1000 nM.

As to `CC(C)N1CCN(c2ccc(Nc3ncc(-c4ccc5c(c4)CNC5=O)n4ccnc34)cn2)CC1` [Compound 210, 5-{8-[6-(4-Isopropyl-piperazin-1-yl)-pyridin-3-ylamino]-imidazo[1,2-a]pyrazin-5-yl}-2,3-dihydro-isoindol-1-one], the EC50 in assay [1] was > 1000 nM. Besides, the IC50 against MAPKAPK5 was in the range of 1 to 100 nM.

As for `NC(=O)c1ccc(-c2cnc(Nc3ccc(-n4ccnc4)cc3)c3nccn23)cc1` [Compound 167], the 50% effective concentration (EC50) in assay [1] fell in the range of 1 to 100 nM. Further, the IC50 at MAPKAPK5 was > 1000 nM.

For `Cn1cnnc1-c1ccc(Nc2ncc(-c3ccc(C(N)=O)cc3)n3ccnc23)cc1` [Compound 141], the EC50 in assay [1] is > 1000 nM. For the same compound, the half-inhibitory concentration (IC50) against MAPKAPK5 is > 1000 nM.

Consider `O=C(NC1CCNC1)c1ccc(Nc2ncc(-c3cn[nH]c3)n3ccnc23)cc1` (stereo not drawn) [Compound 55], for which, in assay [1], the EC50 was > 1000 nM. Further, the IC50 on MAPKAPK5 is 101 to 500 nM.

Regarding `CCN(CC)CCNS(=O)(=O)c1ccc(Nc2ncc(-c3cn[nH]c3)n3ccnc23)cc1` [Compound 69, N-(2-Diethylaminoethyl)-4-[5-(1H-pyrazol-4-yl)imidazo[1,2-a]pyrazin-8-ylamino]benzenesulfonamide], the EC50 in assay [1] lay in the range of 501 to 1000 nM. The compound further displayed an IC50 against MAPKAPK5 of 101 to 500 nM.

As for `CCN(CC)CCNS(=O)(=O)c1ccc(Nc2ncc(-c3ccc(C(N)=O)cc3)n3ccnc23)cc1` [Compound 98], in assay [1], the EC50 was > 1000 nM. For the same compound, the IC50 on MAPKAPK5 is > 1000 nM.

Values taken from US8178530B2, “Imidazolopyrazine compounds useful for the treatment of degenerative and inflammatory diseases” (Janssen Pharmaceutica NV, priority 2006, dated 2012).
